From the supplement of paper PMC6045584
± gives the standard deviation of the averaged measurements.

Legend:
METHOTREXATE = compound: CN(Cc1cnc2nc(N)nc(N)c2n1)c1ccc(C(=O)N[C@@H](CCC(=O)O)C(=O)O)cc1 [METHOTREXATE]; test: surviving fraction relative to DMSO-only wells; higher = less growth inhibition; settings: exposure time: 5 days
Summary of the method: (§1)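 Luminescence normalised to the median of DMSO-only wells defines surviving fraction, with viability read by CellTiter-Glo. Signal was recorded after 10 minutes at room temperature, once log-phase tumour cell lines seeded at 250–500 cells per well in 384-well plates had spent 24 hours settling and then five days under continuous exposure to inhibitors at 0.5, 1, 5, 10, 50, 100, 500 and 1000 nM.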

AZD4547 = compound: COc1cc(CCc2cc(NC(=O)c3ccc(N4CC(C)NC(C)C4)cc3)n[nH]2)cc(OC)c1 [AZD4547]; test: as above; settings: exposure time: 5 days
Summary of the method: as §1

Test System	surviving fraction (METHOTREXATE; 0.5 nM)	surviving fraction (METHOTREXATE; 1 nM)	surviving fraction (METHOTREXATE; 5 nM)	surviving fraction (METHOTREXATE; 10 nM)	surviving fraction (METHOTREXATE; 50 nM)	surviving fraction (METHOTREXATE; 100 nM)	surviving fraction (METHOTREXATE; 500 nM)	surviving fraction (METHOTREXATE; 1000 nM)	surviving fraction (AZD4547; 0.5 nM)	surviving fraction (AZD4547; 1 nM)	surviving fraction (AZD4547; 5 nM)	surviving fraction (AZD4547; 10 nM)	surviving fraction (AZD4547; 50 nM)	surviving fraction (AZD4547; 100 nM)	surviving fraction (AZD4547; 500 nM)	surviving fraction (AZD4547; 1000 nM)
MDAMB361 BREAST	0.85 ± 0.13	0.853 ± 0.073	0.8 ± 0.015	0.889 ± 0.062	0.947 ± 0.082	0.879 ± 0.037	0.74 ± 0.045	0.735 ± 0.075	0.908 ± 0.033	0.925 ± 0.028	1.04 ± 0.12	0.972 ± 0.064	0.967 ± 0.067	0.993 ± 0.061	0.851 ± 0.035	0.76 ± 0.052
MDAMB436 BREAST	0.955 ± 0.13	0.977 ± 0.091	0.963 ± 0.12	0.857 ± 0.024	0.677 ± 0.096	0.609 ± 0.057	0.65 ± 0.14	0.687 ± 0.083	1.05 ± 0.053	0.9823 ± 0.0041	1.03 ± 0.12	0.942 ± 0.08	0.978 ± 0.059	0.958 ± 0.062	1.07 ± 0.023	1.02 ± 0.024
MDAMB453 BREAST	1.04 ± 0.088	1.06 ± 0.025	1.12 ± 0.068	1.04 ± 0.038	0.966 ± 0.024	0.757 ± 0.028	0.655 ± 0.039	0.66 ± 0.018	1.02 ± 0.074	1.094 ± 0.01	1.106 ± 0.004	1.11 ± 0.056	1.1 ± 0.019	0.825 ± 0.021	0.565 ± 0.021	0.585 ± 0.025
MDAMB468 BREAST	1.12 ± 0.046	1.09 ± 0.072	1.11 ± 0.042	1.12 ± 0.025	0.263 ± 0.015	0.083 ± 0.0027	0.0627 ± 0.0057	0.065 ± 0.001	1.04 ± 0.11	1.02 ± 0.055	1.13 ± 0.057	1.14 ± 0.062	1.02 ± 0.09	1.16 ± 0.096	1.06 ± 0.019	1.14 ± 0.042
MFM223 BREAST	1.18 ± 0.11	1.3 ± 0.3	1.35 ± 0.41	1.41 ± 0.43	1.09 ± 0.096	0.98 ± 0.046	1.04 ± 0.035	1.01 ± 0.018	1.02 ± 0.11	1.03 ± 0.034	0.616 ± 0.056	0.374 ± 0.041	0.244 ± 0.018	0.254 ± 0.015	0.298 ± 0.015	0.3 ± 0.021
MG63 BONE	1.05 ± 0.051	1.07 ± 0.047	1.11 ± 0.042	1.1 ± 0.052	0.364 ± 0.016	0.197 ± 0.0027	0.178 ± 0.01	0.17 ± 0.0082	0.9447 ± 0.006	0.992 ± 0.012	0.929 ± 0.033	0.879 ± 0.048	0.662 ± 0.015	0.63 ± 0.041	0.576 ± 0.02	0.572 ± 0.018
MHM BONE	1.02 ± 0.036	1.04 ± 0.044	1.05 ± 0.078	1.06 ± 0.038	0.784 ± 0.016	0.723 ± 0.04	0.689 ± 0.019	0.699 ± 0.01	0.961 ± 0.016	1 ± 0.006	0.995 ± 0.016	0.993 ± 0.021	0.776 ± 0.014	0.694 ± 0.0087	0.587 ± 0.0075	0.582 ± 0.011
NCIH441 LUNG	1.15 ± 0.12	1.14 ± 0.099	1.12 ± 0.023	1.11 ± 0.062	1.04 ± 0.12	0.882 ± 0.067	0.882 ± 0.11	0.855 ± 0.1	0.977 ± 0.026	1.09 ± 0.035	1.06 ± 0.011	1.06 ± 0.066	1.01 ± 0.038	1.02 ± 0.026	0.934 ± 0.17	0.929 ± 0.093
NOS1 BONE	1.07 ± 0.13	1.05 ± 0.12	1.16 ± 0.08	1.15 ± 0.041	1.26 ± 0.25	1.4 ± 0.33	1.19 ± 0.13	1.12 ± 0.06	0.971 ± 0.12	1.07 ± 0.13	0.913 ± 0.013	0.937 ± 0.064	0.87 ± 0.093	0.824 ± 0.055	0.385 ± 0.025	0.187 ± 0.036
NY BONE	0.978 ± 0.015	0.993 ± 0.013	1.07 ± 0.068	0.97 ± 0.037	0.56 ± 0.023	0.566 ± 0.03	0.475 ± 0.026	0.42 ± 0.025	0.984 ± 0.052	1.03 ± 0.039	1.03 ± 0.049	0.894 ± 0.02	0.466 ± 0.0057	0.394 ± 0.019	0.359 ± 0.023	0.315 ± 0.026
OS25HAL BONE	0.998 ± 0.041	1.01 ± 0.035	1.05 ± 0.029	0.786 ± 0.031	0.357 ± 0.022	0.217 ± 0.017	0.166 ± 0.0076	0.164 ± 0.0066	0.99 ± 0.018	1.02 ± 0.02	1.037 ± 0.0085	1.04 ± 0.012	1.02 ± 0.016	1.036 ± 0.0095	0.948 ± 0.04	0.992 ± 0.018
OSHN BONE	1.12 ± 0.015	1.077 ± 0.0067	0.197 ± 0.0074	0.201 ± 0.0096	0.282 ± 0.031	0.265 ± 0.0081	0.251 ± 0.023	0.255 ± 0.031	1.06 ± 0.02	1.09 ± 0.044	1.09 ± 0.044	1.11 ± 0.048	1.07 ± 0.023	1.1 ± 0.044	1.07 ± 0.042	1.06 ± 0.011
PCI30 HEADNECK	0.988 ± 0.075	1.02 ± 0.062	1.11 ± 0.037	1.09 ± 0.075	1.05 ± 0.055	0.96 ± 0.029	0.811 ± 0.016	0.758 ± 0.071	0.998 ± 0.026	0.966 ± 0.082	1.09 ± 0.12	1.09 ± 0.094	1.16 ± 0.061	1.17 ± 0.11	1.1 ± 0.012	0.999 ± 0.07
RDES SOFT TISSUE	1.2 ± 0.1	1.26 ± 0.021	0.831 ± 0.19	0.295 ± 0.015	0.055 ± 0.0036	0.0457 ± 0.0015	0.0463 ± 0.0046	0.0447 ± 0.0015	1.28 ± 0.16	1.29 ± 0.047	1.12 ± 0.084	1.1 ± 0.12	0.835 ± 0.13	0.813 ± 0.14	0.961 ± 0.16	1.04 ± 0.12
S68 BREAST	0.882 ± 0.3	0.879 ± 0.25	1.1 ± 0.15	1.21 ± 0.29	1.07 ± 0.13	1.21 ± 0.16	1.04 ± 0.18	1.17 ± 0.12	0.981 ± 0.08	1.04 ± 0.052	1.02 ± 0.25	1.1 ± 0.18	0.957 ± 0.23	1.53 ± 0.1	1.05 ± 0.035	0.684 ± 0.062
SAOS2 BONE	1.2 ± 0.051	1.18 ± 0.037	1.25 ± 0.05	1.25 ± 0.023	1.04 ± 0.031	0.841 ± 0.035	0.752 ± 0.018	0.753 ± 0.028	1.046 ± 0.0017	1.077 ± 0.0081	1.14 ± 0.031	1.17 ± 0.085	1.16 ± 0.054	1.14 ± 0.051	0.92467 ± 0.00058	0.649 ± 0.023
SCC36 HEADNECK	1.1 ± 0.11	1.1 ± 0.042	1.15 ± 0.076	1.16 ± 0.14	0.828 ± 0.022	0.731 ± 0.017	0.575 ± 0.046	0.626 ± 0.082	0.993 ± 0.053	1.07 ± 0.081	1.18 ± 0.17	1.09 ± 0.21	0.988 ± 0.07	1.01 ± 0.039	0.856 ± 0.029	0.687 ± 0.053
SCC47 HEADNECK	1.11 ± 0.097	1.15 ± 0.098	1.06 ± 0.019	0.946 ± 0.15	0.827 ± 0.04	0.814 ± 0.03	0.773 ± 0.033	0.789 ± 0.019	0.967 ± 0.14	1.02 ± 0.066	1.02 ± 0.1	1.13 ± 0.069	1.08 ± 0.037	1.09 ± 0.091	1.03 ± 0.078	0.961 ± 0.074
SCC90 HEADNECK	1.07 ± 0.075	1.05 ± 0.11	1.07 ± 0.066	1.09 ± 0.098	0.954 ± 0.015	0.852 ± 0.068	0.424 ± 0.06	0.416 ± 0.031	1.07 ± 0.095	1.06 ± 0.11	1.04 ± 0.17	1.09 ± 0.14	1.08 ± 0.038	1.15 ± 0.055	1.04 ± 0.043	1.1 ± 0.11
